According to US6713499B2, “7-Amino-benzothiazole derivatives” (Hoffman-La Roche Inc., priority 2001, dated 2004):

target: T1, human adenosine A2A receptor (Homo sapiens, UniProt P29274); experiment: [3H]-SCH-58261 binding assay on membranes of CHO cells expressing the human adenosine A2A receptor; settings: [3H]-SCH-58261 (1 nM) displacement, CHO cell membranes, SPA beads, 1 hour at room temperature; Ki by Cheng-Prussoff equation
T1 construct: expressed in transfected cells; host or cells: CHO cells, Semliki Forest virus expression system; washed membrane pellet used
T1 sequence (P29274 whole entry): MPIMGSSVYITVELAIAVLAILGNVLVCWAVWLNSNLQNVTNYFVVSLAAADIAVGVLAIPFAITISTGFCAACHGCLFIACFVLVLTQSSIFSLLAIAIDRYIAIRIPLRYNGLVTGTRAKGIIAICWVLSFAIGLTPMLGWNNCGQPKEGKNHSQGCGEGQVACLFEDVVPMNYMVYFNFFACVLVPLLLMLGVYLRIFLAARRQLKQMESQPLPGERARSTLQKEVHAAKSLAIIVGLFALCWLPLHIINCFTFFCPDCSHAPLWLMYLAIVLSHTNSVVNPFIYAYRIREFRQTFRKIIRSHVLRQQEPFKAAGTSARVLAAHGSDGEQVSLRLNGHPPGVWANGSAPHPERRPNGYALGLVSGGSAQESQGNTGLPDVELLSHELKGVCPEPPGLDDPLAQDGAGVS
Description: Human Adenosine A2A Receptor
The human adenosine A2A receptor was recombinantly expressed in chinese hamster ovary (CHO) cells using the semliki forest virus expression system. Cells were harvested, washed twice by centrifugation, homogenised and again washed by centrifugation. The final washed membrane pellet was suspended in a Tris (50 mM) buffer containing 120 mM NaCl, 5 mM KCl, 2 mM CaCl2 and 10 mM MgCl2 (pH 7.4) (buffer A). The [3H]-SCH-58261 (Dionisotti et al., 1997, Br J Pharmacol 121, 353; 1 nM) binding assay was carried out in 96-well plates in the presence of 2.5 μg of membrane protein, 0.5 mg of Ysi-poly-1-lysine SPA beads and 0.1 U adenosine deaminase in a final volume of 200 μl of buffer A. Non-specific binding was defined using xanthine amine congener (XAC; 2 μM). Compounds were tested at 10 concentrations from 10 μM-0.3 nM. All assays were conducted in duplicate and repeated at least two times. Assay plates were incubated for 1 hour at room temperature before centrifugation and then bound ligand determined using a Packard Topcount scintillation counter. IC50 values were calculated using a non-linear curve fitting program and Ki values calculated using, the Cheng-Prussoff equation.

| hA2 (pKi) | Compound |
| --- | --- |
| 7.33 | COc1ccc(N(C)C2CCOCC2)c2sc(NC(=O)c3ccnc(N4CCOCC4)c3)nc12 [Example 38, N-{4-Methoxy-4-[methyl-(tetrahydro-pyran-4-yl)-amino]-benzothiazol-2-yl}-2-morpholin-4-yl-isonicotinamide] |

same assay, conditions: [3H]-SCH-58261 (1 nM) displacement, CHO cell membranes, SPA beads, 1 hour at room temperature; Ki by Cheng-Prussoff equation; read-out: hA2 (pKi) (converted)

| Ki [nM] | Compound |
| --- | --- |
| 10.7 | COc1ccc(N(Cc2ccccc2)C(C)=O)c2sc(NC(=O)c3ccc(F)cc3)nc12 [Example 24, N-[7-(Acetyl-benzyl-amino)-4-methoxy-benzothiazol-2-yl]-4-fluoro-benzamide] |
| 26.3 | COc1ccc(CN(C)c2ccc(OC)c3nc(NC(=O)c4ccnc(C)c4)sc23)cc1 [Example 30, N-{4-Methoxy-7-[(4-methoxy-benzyl)-methyl-amino]-benzothiazol-2-yl}-2-methyl-isonicotinamide] |
| 33.1 | COc1ccc(N(C)Cc2ccccc2)c2sc(NC(=O)c3ccnc(Br)c3)nc12 [Example 32, N-[7-(Benzyl-methyl-amino)-4-methoxy-benzothiazol-2-yl]-2-bromo-isonicotinamide] |
| 52.5 | COc1ccc(N(Cc2ccccc2)C(C)=O)c2sc(NC(=O)c3ccnc(Br)c3)nc12 [Example 25, N-[7-(Acetyl-benzyl-amino)-4-methoxy-benzothiazol-2-yl]-2-bromo-isonicotinamide] |
| 38.9 | COc1ccc(N(C)Cc2ccccc2)c2sc(NC(=O)c3ccc(F)cc3)nc12 [Example 14, N-[7-(Benzyl-methyl-amino)-4-methoxy-benzothiazol-2-yl]-4-fluoro-benzamide] |
| 11 | COc1ccc(N(C)Cc2ccccc2)c2sc(NC(=O)c3ccnc(N4CCOCC4)c3)nc12 [Example 35, N-[7-(Benzyl-methyl-amino)-4-methoxy-benzothiazol-2-yl]-2-morpholin-4-yl-isonicotinamide] |
| 61.7 | COc1ccc(N(C)Cc2ccccn2)c2sc(NC(=O)c3ccc(F)cc3)nc12 [Example 15, 4-Fluoro-N-[4-methoxy-7-(methyl-pyridin-2-ylmethyl-amino)-benzothiazol-2-yl]-benzamide] |
| 52.5 | COCCN(C)c1ccc(OC)c2nc(NC(=O)c3ccnc(N4CCOCC4)c3)sc12 [Example 6, N-{4-Methoxy-7-[(2-methoxy-ethyl)-methyl-amino]-benzothiazol-2-yl}-2-morpholin-4-yl-isonicotinamide] |
| 15.5 | COc1ccc(N(C)Cc2ccccc2)c2sc(NC(=O)c3ccnc(C)c3)nc12 [Example 16, N-[7-(Benzyl-methyl-amino)-4-methoxy-benzothiazol-2-yl]-2-methyl-isonicotinamide] |

Further lines, the molecule ahead of its results:

| Compound | Ki [nM] |
| --- | --- |
| COCCN(C(C)=O)c1ccc(OC)c2nc(NC(=O)c3ccc(F)cc3)sc12 [Example 26, N-{7-[Acetyl-(2-methoxy-ethyl)-amino]-4-methoxy-benzothiazol-2-yl}-4-fluoro-benzamide] | 17.8 |
| COc1ccc(N(C)C2CCOCC2)c2sc(NC(=O)c3ccc(F)cc3)nc12 [Example 37, 4-Fluoro-N-{4-methoxy-7-[methyl-(tetrahydro-pyran-4-yl)-amino]-benzothiazol-2-yl}-benzamide] | 56.2 |
| COc1ccc(CN(C)c2ccc(OC)c3nc(NC(=O)c4ccc(F)cc4)sc23)cc1 [Example 28, 4-Fluoro-N-{4-methoxy-7-[(4-methoxy-benzyl)-methyl-amino]-benzothiazol-2-yl}-benzamide] | 49 |
| COc1ccc(N(Cc2ccc(C)cc2)C(C)=O)c2sc(NC(=O)c3ccccc3)nc12 [Example 10, N-{7-[Acetyl-(4-methyl-benzyl)-amino]-4-methoxy-benzothiazol-2-yl}-benzamide] | 11.5 |
| CCN(CC(=O)N(C)C)c1ccc(OC)c2nc(NC(=O)c3ccc(F)cc3)sc12 [Example 20, N-[7-(Dimethylcarbamoylmethyl-ethyl-amino)-4-methoxy-benzothiazol-2-yl]-4-fluoro-benzamide] | 61.7 |
| COc1ccc(N(C)C(C)=O)c2sc(NC(=O)c3ccc(F)cc3)nc12 [Example 19, N-[7-(Acetyl-methyl-amino)-4-methoxy-benzothiazol-2-yl]-4-fluoro-benzamide] | 13.2 |
| COc1ccc(N(C)CC(=O)N(C)C)c2sc(NC(=O)c3ccc(F)cc3)nc12 [Example 17, N-[7-(Dimethylcarbamoylmethyl-methyl-amino)-4-methoxy-benzothiazol-2-yl]-4-fluoro-benzamide] | 60.3 |
| COCCN(C)c1ccc(OC)c2nc(NC(=O)c3ccc(CCl)cc3)sc12 [Example 3, 4-Chloromethyl-N-{4-methoxy-7-[(2-methoxy-ethyl)-methyl-amino]-benzothiazol-2-yl}-benzamide] | 37.2 |
| CCN(C(C)=O)c1ccc(OC)c2nc(NC(=O)c3ccc(F)cc3)sc12 [Example 21, N-[7-(Acetyl-ethyl-amino)-4-methoxy-benzothiazol-2-yl]-4-fluoro-benzamide] | 10 |
| COCCN(C)c1ccc(OC)c2nc(NC(=O)c3ccccc3)sc12 [Example 1, N-{4-Methoxy-7-[(2-methoxy-ethyl)-methyl-amino]-benzothiazol-2-yl}-benzamide] | 52.5 |
| COc1ccc(N(C)C)c2sc(NC(=O)c3ccc(F)cc3)nc12 [Example 12, N-(7-Dimethylamino-4-methoxy-benzothiazol-2-yl)-4-fluoro-benzamide] | 74.1 |
| COCCN(C)c1ccc(OC)c2nc(NC(=O)c3ccc(F)cc3)sc12 [Example 2, 4-Fluoro-N-{4-methoxy-7-[(2-methoxy-ethyl)-methyl-amino]-benzothiazol-2-yl}-benzamide] | 38 |
